In patent US20110311649A1, “NOVEL IMIDAZOLE DERIVATIVES” (SYNGENTA CROP PROTECTION, INC., priority 2007, published 2011):

Experiments:
Format in all cases: in vivo
Alternaria solani = test: Alternaria solani/Tomato/Preventive (action against Alternaria on tomato); settings: 96 h, preventive spray, tomato plants cv. Roter Gnom, assessed 4 days after inoculation, read-out: inhibit fungal infestation
Method: (§1) Alternaria solani/Tomato/Preventive (Action Against Alternaria on Tomato) 4 weeks old tomato plants cv. Roter Gnom are treated with the formulated test compound in a spray chamber. Two days after application tomato plants are inoculated by spraying a spore suspension on the test plants. After an incubation period of 4 days at 22° C./18° C. and 95% r. h. in a greenhouse the disease incidence is assessed.

[1] = system: Pyrenophora teres (Helminthosporium teres); test: Pyrenophora teres (Helminthosporium teres)/Barley/Preventive (action against net blotch on barley); settings: 96 h, preventive spray, barley plants cv. Regina, assessed 4 days after inoculation, read-out: inhibit fungal infestation
Method: Pyrenophora teres (Helminthosporium teres)/Barley/Preventive (Action Against Net Blotch on Barley) 1-week-old barley plants cv. Regina are treated with the formulated test compound in a spray chamber. Two days after application barley plants are inoculated by spraying a spore suspension (2.6×10^4 conidia/ml) on the test plants. After an incubation period of 4 days at 20° C. and 95% r. h. the disease incidence is assessed.

Septoria tritici = test: Septoria tritici/Wheat/Preventive (action against Septoria leaf spot on wheat); settings: Zymoseptoria tritici, preventive spray, wheat plants cv. Riband, assessed 16-18 days after inoculation, read-out: inhibit fungal infestation
Method: Septoria tritici/Wheat/Preventive (Action Against Septoria Leaf Spot on Wheat) 2 weeks old wheat plants cv. Riband are treated with the formulated test compound in a spray chamber. One day after application wheat plants are inoculated by spraying a spore suspension (10^6 conidia/ml) on the test plants. After an incubation period of 1 day at 22° C./21° C. and 95% r. h. plants are kept at 22° C./21° C. and 70% r.h. in a greenhouse. The disease incidence is assessed 16-18 days after inoculation.

Uncinula necator = test: Uncinula necator/Grape/Preventive (action against powdery mildew on grape); settings: Erysiphe necator, 168 h, preventive spray, grape seedlings cv. Gutedel, assessed 7 days after inoculation, read-out: inhibit fungal infestation
Method: Uncinula necator/Grape/Preventive (Action Against Powdery Mildew on Grape) 5 weeks old grape seedlings cv. Gutedel are treated with the formulated test compound in a spray chamber. One day after application grape plants are inoculated by shaking plants infected with grape powdery mildew above the test plants. After an incubation period of 7 days at 24° C./22° C. and 70% r. h. under a light regime of 14/10 h (light/dark) the disease incidence is assessed.

[2] = system: Magnaporthe grisea (Pyricularia oryzae); test: whole plant or invertebrate; settings: 144 h, read-out: inhibit fungal infestation
Botrytis cinerea = test: Botrytis cinerea/Tomato/Preventive (action against Botrytis on tomato); settings: 72 h, preventive spray, tomato plants cv. Roter Gnom, assessed 3 days after inoculation, read-out: inhibit fungal infestation
Method: as §1, with “Botrytis cinerea/Tomato/Preventive (Action” for “Alternaria solani/Tomato/Preventive (Action”, “Against Botrytis” for “Against Alternaria”, “of 3” for “of 4”, “at 20°” for “at 22° C./18°”

Puccinia recondita = test: Puccinia recondita/Wheat/Preventive (action against brown rust on wheat); settings: 264 h, preventive spray, wheat plants cv. Arina, assessed 11 days after inoculation, read-out: inhibit fungal infestation
Method: Puccinia recondita/Wheat/Preventive (Action Against Brown Rust on Wheat) 1 week old wheat plants cv. Arina are treated with the formulated test compound in a spray chamber. One day after application wheat plants are inoculated by spraying a spore suspension ([…] uredospores/ml) on the test plants. After an incubation period of 1 day at 20° C. and 95% r. h. plants are kept for 10 days 20° C./18° C. (day/night) and 60% r.h. in a greenhouse. The disease incidence is assessed 11 days after inoculation.

Measured: inhibition at 200 ppm

Fc1cc(F)c(-c2c(Cl)nc(Cl)n2-c2cnc3ccccc3c2)c(F)c1 [I.j.269, 3-[2,4-dichloro-5-(2,4,6-trifluoro-phenyl)-imidazol-1-yl]-quinoline]
≥ 80%: Alternaria solani | [1] | Septoria tritici | Uncinula necator

Cc1ccc(-n2c(C)nc(Cl)c2-c2c(F)cc(F)cc2F)cn1 [I.j.225, 5-[4-Chloro-2-methyl-5-(2,4,6-trifluoro-phenyl)-imidazol-1-yl]-2-methyl-pyridine]
≥ 80%: Alternaria solani | [2] | Septoria tritici | Uncinula necator

Cc1nc(Cl)c(-c2c(F)cc(F)cc2F)n1-c1ccc(Cl)nc1 [I.j.210, 2-Chloro-5-[4-chloro-2-methyl-5-(2,4,6-trifluoro-phenyl)-imidazol-1-yl]-pyridine]
≥ 80%: all assays above

COc1cc(F)c(-c2c(Cl)nc(C)n2-c2ccc(C)nc2)c(F)c1 [I.m.225, 5-[4-Chloro-5-(2,6-difluoro-4-methoxy-phenyl)-2-methyl-imidazol-1-yl]-2-methyl-pyridine]
≥ 80%: all assays above

COc1cc(F)c(-c2c(Cl)nc(C)n2-c2ccc(Cl)nc2)c(F)c1 [I.m.210, 2-Chloro-5-[4-chloro-5-(2,6-difluoro-4-methoxy-phenyl)-2-methyl-imidazol-1-yl]-pyridine]
≥ 80%: all assays above

Cc1nc(Cl)c(-c2c(F)cc(F)cc2F)n1-c1cnc2ccccc2c1 [I.j.270, 3-[4-chloro-2-methyl-5-(2,4,6-trifluoro-phenyl)-imidazol-1-yl]-quinoline]
≥ 80%: all assays above

COc1cc(F)c(-c2c(Cl)nc(C)n2-c2ccc(OC)nc2)c(F)c1 [I.m.220, 5-[4-Chloro-5-(2,6-difluoro-4-methoxy-phenyl)-2-methyl-imidazol-1-yl]-2-methoxy-pyridine]
≥ 80%: all assays above

Fc1cc(F)c(-c2c(Cl)nc(Cl)n2-c2ccc(Cl)nc2)c(F)c1 [I.j.209, 2-Chloro-5-[2,4-dichloro-5-(2,4,6-trifluoro-phenyl)-imidazol-1-yl]-pyridine]
not listed: Uncinula necator | Puccinia recondita
≥ 80%: all other assays above
